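Growth conditions: 96-well plates. Treatment: test compound, 48 hours, 5 concentrations. Analysis: linear interpolation between bracketing concentrations; unreached endpoints set to highest concentration. GI50: concentration for 50% inhibition of growth.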 Activity calls are given as the source filed them. Cut-off read from the data, not from the text of the source: active = GI50 up to about 1.1 µM and inactive = higher.
Assays:
Test in all cases: inhibition of tumour cell growth, NCI panel, 48 h
CCRF-CEM = system: CCRF-CEM
HCC 2998 = system: HCC 2998
SR = system: SR
SK-OV-3 = system: SK-OV-3
IGROV-1 = system: IGROV-1
SF-268 = system: SF-268
TK-10 = system: TK-10
RXF 393 = system: RXF 393
SK-MEL-5 = system: SK-MEL-5
Malme-3M = system: Malme-3M
SK-MEL-2 = system: SK-MEL-2
SNB-75 = system: SNB-75
SN12C = system: SN12C
RPMI-8226 = system: RPMI-8226
COLO 205 = system: COLO 205
SW-620 = system: SW-620
LOX IMVI = system: LOX IMVI
UACC-257 = system: UACC-257

Measured: GI50

COC1OC(CO)C(O)C(NC(=O)N(C)N=O)C1O (configuration not stated)
inactive: CCRF-CEM > 100 µM | HCC 2998 > 100 µM | SR > 100 µM | SK-OV-3 > 100 µM | IGROV-1 > 100 µM | SF-268 > 100 µM | TK-10 > 100 µM | RXF 393 > 100 µM | SK-MEL-5 > 100 µM | Malme-3M > 100 µM | SK-MEL-2 > 100 µM | SNB-75 > 100 µM | SN12C > 100 µM | RPMI-8226 > 100 µM | COLO 205 > 100 µM | SW-620 > 100 µM

CN1C(=O)C2C3C=C4c5ccccc5N(c5ccccc5)C4(C2C1=O)[C@H]1C(=O)N(C)C(=O)[C@@H]31 (some centres not stated)
inactive: CCRF-CEM > 100 µM | HCC 2998 > 100 µM | SR > 100 µM | SK-OV-3 > 100 µM | SF-268 > 100 µM | TK-10 > 100 µM | LOX IMVI > 100 µM | Malme-3M > 100 µM | UACC-257 > 100 µM | SK-MEL-2 > 100 µM | SNB-75 > 100 µM | SN12C > 100 µM | RPMI-8226 > 100 µM | COLO 205 > 100 µM | SW-620 > 100 µM

COc1ccc(N2C(=O)[C@@H](N=[N+]=[N-])[C@@H]2[C@H]2COC(C)(C)O2)cc1
inactive: CCRF-CEM > 100 µM | HCC 2998 > 100 µM | SR > 100 µM | SK-OV-3 > 100 µM | IGROV-1 > 100 µM | SF-268 > 100 µM | RXF 393 > 100 µM | SK-MEL-5 > 100 µM | Malme-3M > 100 µM | UACC-257 > 100 µM | SK-MEL-2 > 100 µM | SNB-75 > 100 µM | SN12C > 100 µM | RPMI-8226 > 100 µM | COLO 205 > 100 µM | SW-620 > 100 µM

N#CC(C(=O)CCCC(=O)Nc1ccc(Cl)cc1Cl)c1ccc(Cl)cc1 (configuration not stated)
inactive: HCC 2998 > 100 µM | SR > 100 µM | SK-OV-3 > 100 µM | IGROV-1 > 100 µM | SF-268 > 100 µM | TK-10 > 100 µM | LOX IMVI > 100 µM | Malme-3M > 100 µM | UACC-257 > 100 µM | SK-MEL-2 > 100 µM | SNB-75 > 100 µM | SN12C > 100 µM | RPMI-8226 > 100 µM | COLO 205 > 100 µM | SW-620 > 100 µM

CCOC(=O)N1C(c2ccccc2)C=CC(c2ccccc2)N1C(=O)OCC (configuration not stated)
inactive: CCRF-CEM > 100 µM | SR > 100 µM | IGROV-1 > 100 µM | SF-268 > 100 µM | TK-10 > 100 µM | RXF 393 > 100 µM | SK-MEL-5 > 100 µM | LOX IMVI > 100 µM | Malme-3M > 100 µM | UACC-257 > 100 µM | SK-MEL-2 > 100 µM | SNB-75 42.9 µM | SN12C > 100 µM | RPMI-8226 > 100 µM | COLO 205 > 100 µM | SW-620 > 100 µM

CN(C(=O)C12C3C4C1C1C2C3C41C(=O)N(C)C(C)(C)C)C(C)(C)C (configuration not stated)
inactive: CCRF-CEM > 50 µM | HCC 2998 > 50 µM | SR > 50 µM | SK-OV-3 > 50 µM | IGROV-1 > 50 µM | SF-268 > 50 µM | SK-MEL-5 > 50 µM | Malme-3M > 50 µM | SNB-75 21.6 µM | SN12C > 50 µM | COLO 205 > 50 µM | SW-620 > 50 µM

c1ccc2cc3[s+]snc3cc2c1
inactive: CCRF-CEM 89.7 µM | HCC 2998 > 100 µM | SR > 100 µM | SK-OV-3 > 100 µM | IGROV-1 > 100 µM | SF-268 > 100 µM | TK-10 > 100 µM | RXF 393 > 100 µM | SK-MEL-5 97.9 µM | LOX IMVI > 100 µM | Malme-3M > 100 µM | UACC-257 > 100 µM | SK-MEL-2 > 100 µM | SNB-75 > 100 µM | SN12C > 100 µM | COLO 205 > 100 µM | SW-620 > 100 µM
